The target of the assay is N-His-Tb-BIR3 (241-356, XIAP) (Homo sapiens (Human), UniProt P98170). The experiment in a line: biochemical. The assay is classed as binding. The conditions noted are these: fluoresceinated modified SMAC peptide, fluorescence polarization; read-out: XIAP BIR3 FPA IC50.
In the case of `CN[C@@H](C)C(=O)N[C@H](C(=O)N1Cc2cc(NC(=O)CCC(=O)N[C@H]3C[C@@H](C(=O)N[C@@H]4CCCc5ccccc54)N(C(=O)[C@@H](NC(=O)[C@H](C)NC)C(C)(C)C)C3)ccc2C[C@H]1C(=O)N[C@@H]1CCCc2ccccc21)C(C)(C)C` [Example 1, N^1—((S)-2-((S)-3,3-Dimethyl-2-((S)-2-(methylamino)propanamido)butanoyl)-3-(((R)-1,2,3,4-tetrahydronaphthalen-1-yl)carbamoyl)-1,2,3,4-tetrahydroisoquinolin-7-yl)-N^4-((3S,5S)-1-((S)-3,3-dimethyl-2-((S)-2-(methylamino)propanamido)butanoyl)-5-(((R)-1,2,3,4-tetrahydronaphthalen-1-yl)carbamoyl)pyrrolidin-3-yl)succinamide], the IC50 was found to be 0.061 µM. Turning to `CN[C@@H](C)C(=O)N[C@H](C(=O)N1Cc2cc(N(C(=O)C3(C(N)=O)CC3)[C@H]3C[C@@H](C(=O)N[C@@H]4CCCc5ccccc54)N(C(=O)[C@@H](NC(=O)[C@H](C)NC)C(C)(C)C)C3)ccc2C[C@H]1C(=O)N[C@@H]1CCCc2ccccc21)C(C)(C)C` [Example 4, N-((S)-2-((S)-3,3-Dimethyl-2-((S)-2-(methylamino)propanamido)butanoyl)-3-(((R)-1,2,3,4-tetrahydronaphthalen-1-yl)carbamoyl)-1,2,3,4-tetrahydroisoquinolin-7-yl)-N-((3S,5S)-1-((S)-3,3-dimethyl-2-((S)-2-(methylamino)propanamido)butanoyl)-5-(((R)-1,2,3,4-tetrahydronaphthalen-1-yl)carbamoyl)pyrrolidin-3-yl)cyclopropane-1,1-dicarboxamide], the IC50 stood at 0.053 µM. The same measure for `CN[C@@H](C)C(=O)N[C@H](C(=O)N1Cc2cc(N(C(=O)C3(C(N)=O)CCC3)[C@H]3C[C@@H](C(=O)N[C@@H]4CCCc5ccccc54)N(C(=O)[C@@H](NC(=O)[C@H](C)NC)C(C)(C)C)C3)ccc2C[C@H]1C(=O)N[C@@H]1CCCc2ccccc21)C(C)(C)C` [Example 5, N-((S)-2-((S)-3,3-Dimethyl-2-((S)-2-(methylamino)propanamido)butanoyl)-3-(((R)-1,2,3,4-tetrahydronaphthalen-1-yl)carbamoyl)-1,2,3,4-tetrahydroisoquinolin-7-yl)-N-((3S,5S)-1-((S)-3,3-dimethyl-2-((S)-2-(methylamino)propanamido)butanoyl)-5-(((R)-1,2,3,4-tetrahydronaphthalen-1-yl)carbamoyl)pyrrolidin-3-yl)cyclobutane-1,1-dicarboxamide]: 0.069 µM; for `CN[C@@H](C)C(=O)N[C@H](C(=O)N1Cc2cc(NC(=O)C3CC4(C3)CC(C(=O)N[C@H]3C[C@@H](C(=O)N[C@@H]5CCCc6ccccc65)N(C(=O)[C@@H](NC(=O)[C@H](C)NC)C(C)(C)C)C3)C4)ccc2C[C@H]1C(=O)N[C@@H]1CCCc2ccccc21)C(C)(C)C` (stereo partly drawn) [Example 7, N^2-((S)-2-((S)-3,3-Dimethyl-2-((S)-2-(methylamino)propanamido)butanoyl)-3-(((R)-1,2,3,4-tetrahydronaphthalen-1-yl)carbamoyl)-1,2,3,4-tetrahydroisoquinolin-7-yl)-N^6-((3S,5S)-1-((S)-3,3-dimethyl-2-((S)-2-(methylamino)propanamido)butanoyl)-5-(((R)-1,2,3,4-tetrahydronaphthalen-1-yl)carbamoyl)pyrrolidin-3-yl)spiro[3.3]heptane-2,6-dicarboxamide]: 0.083 µM; for `CN[C@@H](C)C(=O)N[C@H](C(=O)N1Cc2cc(NC(=O)CCc3ccc(C(=O)N[C@H]4C[C@@H](C(=O)N[C@@H]5CCCc6ccccc65)N(C(=O)[C@@H](NC(=O)[C@H](C)NC)C(C)(C)C)C4)cc3)ccc2C[C@H]1C(=O)N[C@@H]1CCCc2ccccc21)C(C)(C)C` [Example 8, (S)-2-((S)-3,3-Dimethyl-2-((S)-2-(methylamino)propanamido)butanoyl)-7-(3-(4-(((3S,5S)-1-((S)-3,3-dimethyl-2-((S)-2-(methylamino)propanamido)butanoyl)-5-(((R)-1,2,3,4-tetrahydronaphthalen-1-yl)carbamoyl)pyrrolidin-3-yl)carbamoyl)phenyl)propanamido)-N-((R)-1,2,3,4-tetrahydronaphthalen-1-yl)-1,2,3,4-tetrahydroisoquinoline-3-carboxamide]: 0.057 µM. For `CN[C@@H](C)C(=O)N[C@H](C(=O)N1Cc2cc(NC(=O)c3ccc(CCC(=O)N[C@H]4C[C@@H](C(=O)N[C@@H]5CCCc6ccccc65)N(C(=O)[C@@H](NC(=O)[C@H](C)NC)C(C)(C)C)C4)cc3)ccc2C[C@H]1C(=O)N[C@@H]1CCCc2ccccc21)C(C)(C)C` [Example 9, (S)-2-((S)-3,3-Dimethyl-2-((S)-2-(methylamino)propanamido)butanoyl)-7-(4-(3-(((3S,5S)-1-((S)-3,3-dimethyl-2-((S)-2-(methylamino)propanamido)butanoyl)-5-(((R)-1,2,3,4-tetrahydronaphthalen-1-yl)carbamoyl)pyrrolidin-3-yl)amino)-3-oxopropyl)benzamido)-N-((R)-1,2,3,4-tetrahydronaphthalen-1-yl)-1,2,3,4-tetrahydroisoquinoline-3-carboxamide], the IC50 came to 0.065 µM. The same measure for `CN[C@@H](C)C(=O)N[C@H](C(=O)N1Cc2cc(NC(=O)c3ccc(C(=O)Nc4ccc5c(c4)CN(C(=O)[C@@H](NC(=O)[C@H](C)NC)C(C)(C)C)[C@H](C(=O)N[C@H](C)c4ccccc4F)C5)cc3)ccc2C[C@H]1C(=O)N[C@H](C)c1ccccc1F)C(C)(C)C` [Example 12, N^1,N^4-bis((S)-2-((S)-3,3-Dimethyl-2-((S)-2-(methylamino)propanamido)butanoyl)-3-(((R)-1-(2-fluorophenyl)ethyl)carbamoyl)-1,2,3,4-tetrahydroisoquinolin-7-yl)terephthalamide]: 0.13 µM. On to `CN[C@@H](C)C(=O)N[C@H](C(=O)N1Cc2cc(NC(=O)c3ccc(C(=O)Nc4ccc5c(c4)CN(C(=O)[C@@H](NC(=O)[C@H](C)NC)C(C)(C)C)[C@H](C(=O)N[C@@H](COC)c4ccccc4)C5)cc3)ccc2C[C@H]1C(=O)N[C@@H](COC)c1ccccc1)C(C)(C)C` [Example 14, N^1,N^4-bis((S)-2-((S)-3,3-Dimethyl-2-((S)-2-(methylamino)propanamido)butanoyl)-3-(((R)-2-methoxy-1-phenylethyl)carbamoyl)-1,2,3,4-tetrahydroisoquinolin-7-yl)terephthalamide], for which the IC50 was found to be 0.13 µM. To `CC[C@H](NC)C(=O)N[C@H](C(=O)N1Cc2cc(NC(=O)c3ccc(C(=O)N[C@H]4C[C@@H](C(=O)N[C@@H]5CCCc6ccccc65)N(C(=O)[C@@H](NC(=O)[C@H](C)NC)C(C)(C)C)C4)cc3)ccc2C[C@H]1C(=O)N[C@@H]1CCCc2ccccc21)C(C)(C)C` [Example 15, N^1-((S)-2-((S)-3,3-Dimethyl-2-((S)-2-(methylamino)butanamido)butanoyl)-3-(((R)-1,2,3,4-tetrahydronaphthalen-1-yl)carbamoyl)-1,2,3,4-tetrahydroisoquinolin-7-yl)-N^4-((3S,5S)-1-((S)-3,3-dimethyl-2-((S)-2-(methylamino)propanamido)butanoyl)-5-(((R)-1,2,3,4-tetrahydronaphthalen-1-yl)carbamoyl)pyrrolidin-3-yl)terephthalamide] belongs 0.11 µM.
